Laboratory results as given in patent US8952024B2, “Herbicidal pyrimidone derivatives” (E I du Pont de Nemours and Company, priority 2009, dated 2015).

Experiments:
Assay type in all cases: in vivo
[1] = system: windgrass (Apera spica-venti); experiment: Test B postemergence plant response; details: for Windgrass plant response rating (0 to 100 scale): 62 g ai/ha, postemergence, 0 is no effect, 100 is complete control, 13 to 15 days; for Plant response rating, Windgrass: Postemergence, 125 g ai/ha, scale 0 to 100 (0 no effect, 100 complete control)
How it was run: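 Visual ratings from 0 (no effect) to 100 (complete control), made against controls 13–15 days after treatment, kept in a greenhouse. Compounds were applied postemergence to potted plants at the 1- to 4-leaf stage (2–18 cm).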

[2] = system: wheat (Triticum aestivum); experiment: Test A pre-/postemergence plant response
How it was run: (§1)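 Formulated test chemicals (non-phytotoxic solvent, surfactant) were sprayed onto soil right after planting and simultaneously onto young plants at one to two leaves, 2 to 10 cm tall. Plants stayed in the greenhouse about ten days; injury was then visually scored against untreated controls, from 0 (no effect) to 100 (complete control).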

[3] = system: large crabgrass (Digitaria sanguinalis); experiment: Test A pre-/postemergence plant response
How it was run: as §1

[4] = system: giant foxtail (Setaria faberii); experiment: Test A pre-/postemergence plant response
How it was run: as §1

[5] = system: velvetleaf (Abutilon theophrasti); experiment: Test A pre-/postemergence plant response
How it was run: as §1

[6] = system: barnyardgrass (Echinochloa crus-galli); experiment: Test A pre-/postemergence plant response
How it was run: as §1

[7] = system: morningglory (Ipomoea spp.); experiment: Test A pre-/postemergence plant response
How it was run: as §1

[8] = system: pigweed (Amaranthus retroflexus); experiment: Test A pre-/postemergence plant response
How it was run: as §1

corn (Zea mays) = experiment: Test A pre-/postemergence plant response
How it was run: as §1

rice (Oryza sativa) = experiment: Test B flooded paddy test; details: for Plant response rating, Rice: Flood (flooded paddy test), 13 to 15 days; for Rice plant response rating: Flood, 31 g ai/ha, scale 0 to 100 (0 no effect, 100 complete control)
How it was run: (§2)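 Greenhouse-held for 13 to 15 days, treated pots were compared visually with controls and scored 0–100 (0, no effect). Treatment had been made into paddy water kept at 3 cm above the soil, with plants at the 2-leaf stage.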

[9] = system: barnyardgrass (Echinochloa crus-galli); experiment: Test B flooded paddy test; details: for Plant response rating, Flood, Barnyardgrass: 250 g ai/ha, flooded paddy test, visual rating on 0 to 100 scale (0 no effect, 100 complete control) after 13 to 15 days; for Plant response rating, Barnyardgrass: Flood (flooded paddy test), 13 to 15 days; for Barnyardgrass plant response rating: Flood, 31 g ai/ha, scale 0 to 100 (0 no effect, 100 complete control)
How it was run: as §2

[10] = system: ducksalad (Heteranthera limosa); experiment: Test B flooded paddy test; details: for Plant response rating, Flood, Ducksalad: 250 g ai/ha, flooded paddy test, visual rating on 0 to 100 scale (0 no effect, 100 complete control) after 13 to 15 days; for Plant response rating, Ducksalad: Flood (flooded paddy test), 13 to 15 days; for Ducksalad plant response rating: Flood, 31 g ai/ha, scale 0 to 100 (0 no effect, 100 complete control)
How it was run: as §2

[11] = system: umbrella sedge (Cyperus difformis); experiment: Test B flooded paddy test; details: for Plant response rating, Flood, Sedge, Umbrella: 250 g ai/ha, flooded paddy test, visual rating on 0 to 100 scale (0 no effect, 100 complete control) after 13 to 15 days; for Plant response rating, Sedge, Umbrella: Flood (flooded paddy test), 13 to 15 days; for Sedge, Umbrella plant response rating: Flood, 31 g ai/ha, scale 0 to 100 (0 no effect, 100 complete control)
How it was run: as §2

[12] = Postemergence, 125 g ai/ha, 0 to 100 scale where 0 is no effect and 100 is complete control
[13] = Postemergence, 500 g ai/ha, 0 to 100 scale, 0 = no effect, 100 = complete control, approx. ten days
[14] = Preemergence, 125 g ai/ha, 0 to 100 scale, 0 = no effect, 100 = complete control
[15] = Preemergence, 500 g ai/ha, visual injury, 0 to 100 scale (0 no effect, 100 complete control), approx. ten days
[16] = 62 g ai/ha, scale of 0 to 100 where 0 is no effect and 100 is complete control
[17] = 125 g ai/ha, scale 0 to 100, 0 is no effect, 100 is complete control

CCCn1c(-c2cccc(OC)c2)ncc(C(=O)C2=C(O)CCCC2=O)c1=O [Compound 100]
Windgrass plant response rating (0 to 100 scale) [1]: 40
Plant response rating, Windgrass [1]: 45
Plant response rating, Wheat [2, 12]: 0
Plant response rating, Wheat [2, 13]: 30
Plant response rating, Wheat [2, 14]: 0
Plant response rating, Wheat [2, 15]: 0
Plant response rating, Crabgrass, Large [3, 12]: 80
Plant response rating, Crabgrass, Large [3, 13]: 90
Plant response rating, Crabgrass, Large [3, 14]: 80
Plant response rating, Crabgrass, Large [3, 15]: 90
Plant response rating, Foxtail, Giant [4, 12]: 80
Plant response rating, Foxtail, Giant [4, 13]: 90
Plant response rating, Foxtail, Giant [4, 14]: 50
Plant response rating, Foxtail, Giant [4, 15]: 80
Plant response rating, Velvetleaf [5, 12]: 100
Plant response rating, Velvetleaf [5, 13]: 100
Plant response rating, Velvetleaf [5, 14]: 60
Plant response rating, Velvetleaf [5, 15]: 80
Plant response rating, Barnyardgrass [6, 12]: 80
Plant response rating, Barnyardgrass [6, 13]: 90
Plant response rating, Barnyardgrass [6, 14]: 40
Plant response rating, Barnyardgrass [6, 15]: 90
Plant response rating, Morningglory [7, 12]: 90
Plant response rating, Morningglory [7, 13]: 100
Plant response rating, Morningglory [7, 14]: 70
Plant response rating, Morningglory [7, 15]: 80
Plant response rating, Pigweed [8, 12]: 90
Plant response rating, Pigweed [8, 13]: 100
Plant response rating, Pigweed [8, 14]: 80
Plant response rating, Pigweed [8, 15]: 100
Plant response rating, Corn (corn (Zea mays); [12]): 0
Plant response rating, Corn (corn (Zea mays); [13]): 0
Plant response rating, Corn (corn (Zea mays); [14]): 0
Plant response rating, Corn (corn (Zea mays); [15]): 0
Plant response rating, Rice (rice (Oryza sativa); [16]): 30
Plant response rating, Rice (rice (Oryza sativa); [17]): 35
Rice plant response rating (rice (Oryza sativa)): 0
Plant response rating, Flood, Barnyardgrass [9]: 75
Plant response rating, Barnyardgrass [9, 16]: 45
Plant response rating, Barnyardgrass [9, 17]: 60
Barnyardgrass plant response rating [9]: 20
Plant response rating, Flood, Ducksalad [10]: 85
Plant response rating, Ducksalad [10, 16]: 75
Plant response rating, Ducksalad [10, 17]: 85
Ducksalad plant response rating [10]: 35
Plant response rating, Flood, Sedge, Umbrella [11]: 85
Plant response rating, Sedge, Umbrella [11, 16]: 75
Plant response rating, Sedge, Umbrella [11, 17]: 80
Sedge, Umbrella plant response rating [11]: 40

COCCn1c(-c2cccs2)ncc(C(=O)C2=C(O)CCCC2=O)c1=O [Compound 108]
Windgrass plant response rating (0 to 100 scale) [1]: 10
Plant response rating, Windgrass [1]: 30
Plant response rating, Wheat [2, 12]: 0
Plant response rating, Wheat [2, 13]: 0
Plant response rating, Wheat [2, 14]: 0
Plant response rating, Wheat [2, 15]: 0
Plant response rating, Crabgrass, Large [3, 12]: 90
Plant response rating, Crabgrass, Large [3, 13]: 90
Plant response rating, Crabgrass, Large [3, 14]: 70
Plant response rating, Crabgrass, Large [3, 15]: 90
Plant response rating, Foxtail, Giant [4, 12]: 60
Plant response rating, Foxtail, Giant [4, 13]: 90
Plant response rating, Foxtail, Giant [4, 14]: 30
Plant response rating, Foxtail, Giant [4, 15]: 40
Plant response rating, Velvetleaf [5, 12]: 100
Plant response rating, Velvetleaf [5, 13]: 100
Plant response rating, Velvetleaf [5, 14]: 80
Plant response rating, Velvetleaf [5, 15]: 90
Plant response rating, Barnyardgrass [6, 12]: 90
Plant response rating, Barnyardgrass [6, 13]: 90
Plant response rating, Barnyardgrass [6, 14]: 30
Plant response rating, Barnyardgrass [6, 15]: 90
Plant response rating, Morningglory [7, 12]: 100
Plant response rating, Morningglory [7, 13]: 100
Plant response rating, Morningglory [7, 14]: 80
Plant response rating, Morningglory [7, 15]: 90
Plant response rating, Pigweed [8, 12]: 100
Plant response rating, Pigweed [8, 13]: 100
Plant response rating, Pigweed [8, 14]: 90
Plant response rating, Pigweed [8, 15]: 100
Plant response rating, Corn (corn (Zea mays); [12]): 0
Plant response rating, Corn (corn (Zea mays); [13]): 40
Plant response rating, Corn (corn (Zea mays); [14]): 0
Plant response rating, Corn (corn (Zea mays); [15]): 0
Plant response rating, Flood, Rice (rice (Oryza sativa); 250 g ai/ha, flooded paddy test, visual rating on 0 to 100 scale (0 no effect, 100 complete control) after 13 to 15 days): 10
Plant response rating, Rice (rice (Oryza sativa); [16]): 0
Plant response rating, Rice (rice (Oryza sativa); [17]): 0
Rice plant response rating (rice (Oryza sativa)): 0
Plant response rating, Flood, Barnyardgrass [9]: 30
Plant response rating, Barnyardgrass [9, 16]: 0
Plant response rating, Barnyardgrass [9, 17]: 15
Barnyardgrass plant response rating [9]: 0
Plant response rating, Flood, Ducksalad [10]: 70
Plant response rating, Ducksalad [10, 16]: 50
Plant response rating, Ducksalad [10, 17]: 60
Ducksalad plant response rating [10]: 40
Plant response rating, Flood, Sedge, Umbrella [11]: 95
Plant response rating, Sedge, Umbrella [11, 16]: 40
Plant response rating, Sedge, Umbrella [11, 17]: 60
Sedge, Umbrella plant response rating [11]: 0
